In patent US4309428A, “Maytansinoids” (Takeda Chemical Industries, Ltd., priority 1979, dated 1982):
Values after ≈ are worked out from the molar mass of the structure shown. Where two headings read alike, the source gives them in different places.

Legend:
Tetrahymena pyriformis W = assay: Antiprotozoal activity, serial dilution method; format: cell-based
Description: Antiprotozoal activity of compound (I) was assayed with Tetrahymena pyriformis W as the test organism and a medium composed of 20 g tryptose-peptone (Difco Co.), 1 g yeast extract, 2 g glucose, 1000 ml distilled water, 10 ml 1 M phosphate buffer (pH 7.0) as the assay medium. The microorganism was incubated at 28° C. for 44 to 48 hours and the growth inhibitory activity of compound (I) was assayed by the serial dilution method.

[1] = tested on: melanoma B-16 tumor cells; assay: Antitumor activity: life span prolongation in mice with intraperitoneally transplanted melanoma B-16 (NCI protocol); format: in vivo; conditions: intraperitoneally once daily for 9 days
Description: Therapeutic tests were carried out in mice according to NCI-protocol 1,300, Cancer Chemother, Reports, Part 3, 1972, Vol. 3, No. 2, in which melanoma B-16 tumor cells had been intraperitoneally transplanted, compound (I) being administered intraperitoneally once daily for 9 consecutive days.

[2] = 28° C., 44 to 48 hours, pH 7.0, read-out: Antiprotozoal activity MIC

Structure (SMILES) | MIC (Tetrahymena pyriformis W; [2]) | Antitumor activities B-16 (T/C %) ([1]; 50 μg/kg) | Antitumor activities B-16 (T/C %) ([1]; 100 μg/kg) | also measured
COC1C=CC=C(C)Cc2cc(OCC(=NNC(=O)c3ccncc3)c3ccccc3)c(Cl)c(c2)N(C)C(=O)CC(OC(=O)C(C)C)C2(C)OC2C(C)C2CC1(O)NC(=O)O2 (centres unmarked) [PDM-3-C20-(2-isonicotinoylhydrazono-2-phenyl)ethyl ether] | 2 to 4 µg/mL (≈ 2.33 to 4.66 µM) |  |  | 
COC1C=CC=C(C)Cc2cc(OCc3ccccc3)c(Cl)c(c2)N(C)C(=O)CC(OC(=O)C(C)C)C2(C)OC2C(C)C2CC1(O)NC(=O)O2 (centres unmarked) [PDM-3-C20-benzylether, PDM-3-C20-benzyl ether] | ≤ 1 µg/mL | 220% | 234% | Antitumor activities B-16 (T/C %) ([1]; 25 μg/kg): 182%
CCOC(=O)COc1cc2cc(c1Cl)N(C)C(=O)CC(OC(=O)C(C)C)C1(C)OC1C(C)C1CC(O)(NC(=O)O1)C(OC)C=CC=C(C)C2 (centres unmarked) [C20 -ethoxycarbonylmethyl ether, PDM-3-C20-ethoxycarbonylmethyl ether] | 1 to 2 µg/mL (≈ 1.41 to 2.83 µM) |  |  | 
CCOC(=O)CC(=O)COc1cc2cc(c1Cl)N(C)C(=O)CC(OC(=O)C(C)C)C1(C)OC1C(C)C1CC(O)(NC(=O)O1)C(OC)C=CC=C(C)C2 (centres unmarked) [C20 -γ-ethoxycarbonylacetonyl ether, PDM-3-C20 -γ-ethoxycarbonylacetonyl ether] | 4 µg/mL (≈ 5.34 µM) |  |  | 
C=CCOc1cc2cc(c1Cl)N(C)C(=O)CC(OC(=O)C(C)C)C1(C)OC1C(C)C1CC(O)(NC(=O)O1)C(OC)C=CC=C(C)C2 (centres unmarked) [C20 -allyl ether, PDM-3-C20-allyl ether] | ≤ 1 µg/mL |  |  | 
CCOCCOCCOc1cc2cc(c1Cl)N(C)C(=O)CC(OC(=O)C(C)C)C1(C)OC1C(C)C1CC(O)(NC(=O)O1)C(OC)C=CC=C(C)C2 (centres unmarked) [C20-2-(2-ethoxyethoxy)ethyl ether, PDM-3-C20-2-(2-ethoxyethoxy)ethyl ether] | 2 µg/mL (≈ 2.71 µM) |  |  | 
CCOC(COc1cc2cc(c1Cl)N(C)C(=O)CC(OC(=O)C(C)C)C1(C)OC1C(C)C1CC(O)(NC(=O)O1)C(OC)C=CC=C(C)C2)OCC (stereo not drawn) [PDM-3-C20-(β,β-diethoxy)ethyl ether, PDM-3-C20 -β,β-diethoxyethyl ether] |  | 211% | 240% | Antitumor activities B-16 (T/C %) ([1]; 25 μg/kg): 194%
COC1C=CC=C(C)Cc2cc(OCC(=O)c3ccccc3)c(Cl)c(c2)N(C)C(=O)CC(OC(=O)C(C)C)C2(C)OC2C(C)C2CC1(O)NC(=O)O2 (centres unmarked) [PDM-3-C20-phenacylether, PDM-3-C20-phenacyl ether] |  | 188% | 176% | Antitumor activities B-16 (T/C %) ([1]; 200 μg/kg): 211%; Antitumor activities B-16 (T/C %) ([1]; 400 μg/kg): 203%
CCOc1cc2cc(c1Cl)N(C)C(=O)CC(OC(=O)C(C)C)C1(C)OC1C(C)C1CC(O)(NC(=O)O1)C(OC)C=CC=C(C)C2 (centres unmarked) [C20 -ethoxy ether, PDM-3-C20-ethyl ether] |  |  |  | MIC (Tetrahymena pyriformis W; pH 7, read-out: Antiprotozoal activity MIC): ≤ 1 µg/mL
